In ChEMBL document CHEMBL6109159, “Discovery of a Potent and Selective Protein Arginine Methyltransferase 5 (PRMT5) PROTAC Degrader” (J Med Chem, 2025):
Active and inactive are the calls of the source. The rule behind the calls is not given here.

What was measured:
[1] = target: T1, von Hippel-Lindau disease tumor suppressor/Protein arginine N-methyltransferase 5 (Homo sapiens, UniProt O14744+P40337); assay: PROTAC activity at PRMT5/VHL in human MDA-MB-468 cells assessed as degradation pretreated with VHL-1 followed by treated at 5 uM of compound after 24 hrs by Western blot analysis; format: cell-based
Target sequence in this assay (O14744 whole entry, looked up): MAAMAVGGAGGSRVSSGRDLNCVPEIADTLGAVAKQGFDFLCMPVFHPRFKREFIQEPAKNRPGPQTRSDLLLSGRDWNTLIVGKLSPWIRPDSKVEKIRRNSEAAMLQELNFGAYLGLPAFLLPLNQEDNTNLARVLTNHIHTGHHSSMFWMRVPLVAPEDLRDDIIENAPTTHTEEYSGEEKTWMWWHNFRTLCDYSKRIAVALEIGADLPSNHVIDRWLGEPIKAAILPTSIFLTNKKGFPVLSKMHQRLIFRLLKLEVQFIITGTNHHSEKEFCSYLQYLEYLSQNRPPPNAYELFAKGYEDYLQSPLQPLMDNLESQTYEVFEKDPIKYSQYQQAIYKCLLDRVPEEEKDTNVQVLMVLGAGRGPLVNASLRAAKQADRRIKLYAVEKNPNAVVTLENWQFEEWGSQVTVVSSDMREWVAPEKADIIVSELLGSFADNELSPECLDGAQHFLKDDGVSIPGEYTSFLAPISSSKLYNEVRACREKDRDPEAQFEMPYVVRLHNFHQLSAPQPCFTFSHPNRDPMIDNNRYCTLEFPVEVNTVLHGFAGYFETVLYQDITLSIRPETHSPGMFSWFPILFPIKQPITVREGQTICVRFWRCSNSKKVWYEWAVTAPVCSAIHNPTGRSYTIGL
Target sequence in this assay (P40337 whole entry, looked up): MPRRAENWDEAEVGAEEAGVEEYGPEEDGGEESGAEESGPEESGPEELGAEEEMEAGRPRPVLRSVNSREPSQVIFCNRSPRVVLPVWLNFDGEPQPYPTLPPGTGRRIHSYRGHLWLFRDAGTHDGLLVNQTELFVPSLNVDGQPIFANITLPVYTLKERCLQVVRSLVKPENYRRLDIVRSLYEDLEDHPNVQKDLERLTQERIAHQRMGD

[2] = target: T1, von Hippel-Lindau disease tumor suppressor/Protein arginine N-methyltransferase 5; assay: PROTAC activity at PRMT5/VHL in human MDA-MB-231 cells assessed as degradation at 0.5 uM after 3 days by Western blot analysis; format: cell-based; details: time 3.0 day
Target sequence in this assay (O14744 whole entry, looked up): as the sequence (O14744 whole entry, looked up) above
Target sequence in this assay (P40337 whole entry, looked up): as the sequence (P40337 whole entry, looked up) above

[3] = target: T2, von Hippel-Lindau disease tumor suppressor/Methylosome protein WDR77 (Homo sapiens, UniProt Q9BQA1+P40337); assay: PROTAC activity at MEP50/VHL in human PNT2 cells assessed as degradation at 0.5 to 5 uM after 3 days by Western blot analysis; format: cell-based; details: dose 0.5-5 µM, time 3.0 day
Target sequence in this assay (P40337 whole entry, looked up): as above
Target sequence in this assay (Q9BQA1 whole entry, looked up): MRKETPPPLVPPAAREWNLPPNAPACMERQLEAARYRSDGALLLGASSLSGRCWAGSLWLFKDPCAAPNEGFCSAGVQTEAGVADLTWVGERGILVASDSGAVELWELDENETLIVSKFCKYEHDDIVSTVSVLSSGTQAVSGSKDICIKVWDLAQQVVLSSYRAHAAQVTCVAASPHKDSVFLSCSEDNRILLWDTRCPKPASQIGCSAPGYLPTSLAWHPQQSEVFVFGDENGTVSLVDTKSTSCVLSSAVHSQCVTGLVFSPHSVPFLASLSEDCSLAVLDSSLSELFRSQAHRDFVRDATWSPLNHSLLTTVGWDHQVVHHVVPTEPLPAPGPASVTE

MDA-MB-468 [4] = assay: Cytotoxicity against human MDA-MB-468 cells assessed as cell viability measured after 7 days by CCK-8 assay; format: functional; details: MDA-MB-468, 168 h, time 7 day
[5] = target: Protein arginine N-methyltransferase 5 (Homo sapiens, UniProt O14744); assay: Inhibition of PRMT5 (unknown origin) using S-adenosylmethionine (SAM) using as substrate preincubated for 30 mins followed by substrate addition measured after 60 mins by microplate reader
Protein arginine N-methyltransferase 5, sequence (O14744 whole entry): as the sequence (O14744 whole entry, looked up) above

[6] = target: T2, von Hippel-Lindau disease tumor suppressor/Methylosome protein WDR77; assay: PROTAC activity at MEP50/VHL in human MDA-MB-468 cells assessed as degradation at 2 uM by Western blot analysis; format: cell-based; details: time 3-48 hrs
Target sequence in this assay (P40337 whole entry, looked up): as the sequence (P40337 whole entry, looked up) above
Target sequence in this assay (Q9BQA1 whole entry, looked up): as the sequence (Q9BQA1 whole entry, looked up) above

[7] = target: T2, von Hippel-Lindau disease tumor suppressor/Methylosome protein WDR77; assay: PROTAC activity at MEP50/VHL in human PC-3 cells assessed as degradation at 0.004 to 2.5 uM after 7 hrs by Western blot analysis; format: cell-based; details: dose 0.004-2.5 µM
Target sequence in this assay (P40337 whole entry, looked up): as the sequence (P40337 whole entry, looked up) above
Target sequence in this assay (Q9BQA1 whole entry, looked up): as the sequence (Q9BQA1 whole entry, looked up) above

[8] = target: T2, von Hippel-Lindau disease tumor suppressor/Methylosome protein WDR77; assay: PROTAC activity at MEP50/VHL in human MDA-MB-231 cells assessed as degradation at 5 uM after 3 days by Western blot analysis; format: cell-based; details: time 3.0 day
Target sequence in this assay (P40337 whole entry, looked up): as the sequence (P40337 whole entry, looked up) above
Target sequence in this assay (Q9BQA1 whole entry, looked up): as the sequence (Q9BQA1 whole entry, looked up) above

[9] = target: T1, von Hippel-Lindau disease tumor suppressor/Protein arginine N-methyltransferase 5; assay: PROTAC activity at PRMT5/VHL in human MDA-MB-453 cells assessed as degradation at 0.5 uM after 3 days by Western blot analysis; format: cell-based; details: time 3.0 day
Target sequence in this assay (O14744 whole entry, looked up): as the sequence (O14744 whole entry, looked up) above
Target sequence in this assay (P40337 whole entry, looked up): as the sequence (P40337 whole entry, looked up) above

[10] = target: T1, von Hippel-Lindau disease tumor suppressor/Protein arginine N-methyltransferase 5; assay: PROTAC activity at PRMT5/VHL in human MDA-MB-468 cells assessed as downregulation of PRMT5 at 2 uM of compound after 24 hrs by mass spectrometry (MS)-based global proteomic study; format: cell-based
Target sequence in this assay (O14744 whole entry, looked up): as the sequence (O14744 whole entry, looked up) above
Target sequence in this assay (P40337 whole entry, looked up): as the sequence (P40337 whole entry, looked up) above

[11] = target: T2, von Hippel-Lindau disease tumor suppressor/Methylosome protein WDR77; assay: PROTAC activity at MEP50/VHL in human MDA-MB-468 cells assessed as degradation measured after 72 hrs by Western blot analysis relative to control; format: cell-based
Target sequence in this assay (Q9BQA1 whole entry): as the sequence (Q9BQA1 whole entry, looked up) above
Target sequence in this assay (P40337 whole entry): as the sequence (P40337 whole entry, looked up) above

[12] = target: T2, von Hippel-Lindau disease tumor suppressor/Methylosome protein WDR77; assay: PROTAC activity at MEP50/VHL in human MDA-MB-468 cells assessed as relative protein level at 5 uM measured after 24 hrs by Western blot analysis; format: cell-based
Target sequence in this assay (P40337 whole entry, looked up): as above
Target sequence in this assay (Q9BQA1 whole entry, looked up): as the sequence (Q9BQA1 whole entry, looked up) above

MCF7 = assay: Growth inhibition of human MCF7 cells assessed as cell viability measured after 5 days by CCK-8 assay; format: functional, cell-based; details: time 5.0 day
[13] = target: T1, von Hippel-Lindau disease tumor suppressor/Protein arginine N-methyltransferase 5; assay: PROTAC activity at PRMT5/VHL in human MDA-MB-468 cells assessed as degradation at 2 uM by Western blot analysis; format: cell-based; details: time 3-48 hrs
Target sequence in this assay (O14744 whole entry, looked up): as the sequence (O14744 whole entry, looked up) above
Target sequence in this assay (P40337 whole entry, looked up): as the sequence (P40337 whole entry, looked up) above

PC-3 [14] = assay: Inhibition of sDMA (symmetric dimethylarginine) level in human PC-3 cells at 2 uM measured after 7 days by Western blot analysis; format: functional, cell-based; details: time 7.0 day
[15] = target: T1, von Hippel-Lindau disease tumor suppressor/Protein arginine N-methyltransferase 5; assay: PROTAC activity at PRMT5/VHL in human MDA-MB-468 cells assessed as relative protein level at 5 uM measured after 24 hrs by Western blot analysis; format: cell-based
Target sequence in this assay (O14744 whole entry, looked up): as the sequence (O14744 whole entry, looked up) above
Target sequence in this assay (P40337 whole entry, looked up): as the sequence (P40337 whole entry, looked up) above

MCF-10A = assay: Cytotoxicity against human MCF10A cells assessed as cell viability up to 15 uM measured after 5 days by CCK-8 assay; format: toxicity, cell-based; details: 120 h, time 5 day
[16] = target: T1, von Hippel-Lindau disease tumor suppressor/Protein arginine N-methyltransferase 5; assay: PROTAC activity at PRMT5/VHL in VHL KO human MDA-MB-468 cells assessed as degradation at 0.5 uM of compound after 24 hrs by Western blot analysis; format: cell-based
[17] = target: T2, von Hippel-Lindau disease tumor suppressor/Methylosome protein WDR77; assay: PROTAC activity at MEP50/VHL in human MDA-MB-468 cells assessed as maximal degradation measured after 72 hrs by Western blot analysis relative to control; format: cell-based
Target sequence in this assay (P40337 whole entry, looked up): as above
Target sequence in this assay (Q9BQA1 whole entry, looked up): as the sequence (Q9BQA1 whole entry, looked up) above

[18] = Cmax in Swiss albino mouse plasma at 50 mg/kg, ip measured after 0.5 hrs by LC-MS/MS analysis; format: ADME, organism-based; details: in vivo
BT-549 = assay: Growth inhibition of human BT-549 cells assessed as cell viability measured after 5 days by CCK-8 assay; format: functional, cell-based; details: time 5.0 day
[19] = target: T1, von Hippel-Lindau disease tumor suppressor/Protein arginine N-methyltransferase 5; assay: PROTAC activity at PRMT5/VHL in human MCF7 cells assessed as degradation at 0.5 uM after 3 days by Western blot analysis; format: cell-based; details: time 3.0 day
[20] = target: T1, von Hippel-Lindau disease tumor suppressor/Protein arginine N-methyltransferase 5; assay: PROTAC activity at PRMT5/VHL in VHL KO human MDA-MB-468 cells assessed as degradation at 5 uM of compound after 24 hrs by Western blot analysis; format: cell-based
MDA-MB-453 = assay: Growth inhibition of human MDA-MB-453 cells assessed as cell viability measured after 5 days by CCK-8 assay; format: functional, cell-based; details: time 5.0 day
[21] = target: T1, von Hippel-Lindau disease tumor suppressor/Protein arginine N-methyltransferase 5; assay: PROTAC activity at PRMT5/VHL in human MCF7 cells assessed as degradation at 5 uM after 3 days by Western blot analysis; format: cell-based; details: time 3.0 day
[22] = target: T1, von Hippel-Lindau disease tumor suppressor/Protein arginine N-methyltransferase 5; assay: PROTAC activity at PRMT5/VHL in human MDA-MB-468 cells assessed as degradation pretreated with MLN4924 neddylation inhibitor followed by treated at 5 uM of compound after 24 hrs by Western blot analysis; format: cell-based
[23] = target: T1, von Hippel-Lindau disease tumor suppressor/Protein arginine N-methyltransferase 5; assay: PROTAC activity at […]/VHL in human MDA-MB-468 cells assessed as relative protein level at 0.5 uM measured after 24 hrs by Western blot analysis; format: cell-based
[24] = target: T2, von Hippel-Lindau disease tumor suppressor/Methylosome protein WDR77; assay: PROTAC activity at MEP50/VHL in human MDA-MB-453 cells assessed as degradation at 5 uM after 3 days by Western blot analysis; format: cell-based; details: time 3.0 day
[25] = target: T1, von Hippel-Lindau disease tumor suppressor/Protein arginine N-methyltransferase 5; assay: PROTAC activity at PRMT5/VHL in human PC-3 cells assessed as degradation at 0.004 to 2.5 uM after 7 hrs by Western blot analysis; format: cell-based; details: dose 0.004-2.5 µM
[26] = target: T2, von Hippel-Lindau disease tumor suppressor/Methylosome protein WDR77; assay: PROTAC activity at MEP50/VHL in human MCF7 cells assessed as degradation at 5 uM after 3 days by Western blot analysis; format: cell-based; details: time 3.0 day
PC-3 [27] = assay: Inhibition of colony formation in human PC-3 cells incubated for 10 days by crystal violet staining based analysis; format: functional, cell-based; details: time 10.0 day
MDA-MB-468 [28] = assay: Inhibition of colony formation in human MDA-MB-468 cells incubated for 16 days by crystal violet staining based analysis; format: functional, cell-based; details: time 16.0 day
MDA-MB-468 [29] = assay: Inhibition of sDMA (symmetric dimethylarginine) level in human MDA-MB-468 cells at 2 uM measured after 7 days by Western blot analysis; format: functional, cell-based; details: time 7.0 day
[30] = target: T1, von Hippel-Lindau disease tumor suppressor/Protein arginine N-methyltransferase 5; assay: PROTAC activity at PRMT5/VHL in human MDA-MB-468 cells assessed as degradation measured after 72 hrs by Western blot analysis; format: cell-based
Target sequence in this assay (O14744 whole entry): as the sequence (O14744 whole entry, looked up) above
Target sequence in this assay (P40337 whole entry): as the sequence (P40337 whole entry, looked up) above

[31] = target: T2, von Hippel-Lindau disease tumor suppressor/Methylosome protein WDR77; assay: PROTAC activity at MEP50/VHL in VHL KO human MDA-MB-468 cells assessed as degradation at 5 uM of compound after 24 hrs by Western blot analysis; format: cell-based
[32] = Plasma concentration in Swiss albino mouse at 50 mg/kg, ip measured after 8 hrs by LC-MS/MS analysis; format: ADME, organism-based

SMILES: Cc1ncsc1-c1ccc([C@H](CC(=O)NCCOCCOCCOCCOCCOCCC(=O)N2CCC(Nc3cc(C(=O)NC[C@H](O)CN4CCc5ccccc5C4)ncn3)CC2)NC(=O)[C@@H]2C[C@@H](O)CN2C(=O)[C@@H](NC(=O)C2(F)CC2)C(C)(C)C)cc1
- Activity [1]: inactive
- Activity [2]: Active
- Activity [3]: 100%
- GI50 (MDA-MB-468 [4]): 5600 nM
- IC50 [5]: 2100 nM
- Activity [6]: Time-dependent-effect
- Activity [7]: Active
- Activity [8]: Active
- Activity [9]: Active
- Activity [10]: Active
- DC50 [11]: 11.3 nM
- Activity [12]: Active
- growth inhibition (GI) (MCF7): Active
- Activity [13]: Time-dependent-effect
- inhibition (PC-3 [14]): Active
- Activity [15]: Active
- Activity (MCF-10A): Non-toxic
- Activity [16]: Not active; Complete Rescue Not Observed - Due To Incomplete Vhl Ko
- Emax [17]: 91.4%
- Cmax [18]: 17.5 µM
- growth inhibition (GI) (BT-549): Active
- Activity [19]: Active
- Activity [20]: Not active; Complete Rescue Not Observed - Due To Incomplete Vhl Ko
- growth inhibition (GI) (MDA-MB-453): Active
- Activity [21]: Active
- Activity [22]: inactive
- Activity [23]: Active
- Activity [24]: Active
- Activity [25]: Active
- Activity [26]: Active
- Activity (PC-3 [27]): Active
- Activity (MDA-MB-468 [28]): Active
- inhibition (MDA-MB-468 [29]): Active
- DC50 [30]: 17.4 nM
- Activity [31]: Not active; Complete Rescue Not Observed - Due To Incomplete Vhl Ko
- concentration at 8 h [32]: 0.2 µM
